# Data: ChEMBL document CHEMBL3351633, “Anithiactins A-C, modified 2-phenylthiazoles from a mudflat-derived Streptomyces sp” (J Nat Prod, 2014)
# Calls of active or inactive are those of the source. The rule behind the calls is not given here.
# Legend:
# [1] = target: Acetylcholinesterase (Homo sapiens, UniProt P22303); assay: Inhibition of AChE (unknown origin) assessed as inhibition of acetylcholine hydrolysis preincubated for 15 mins by Ellman method
# [2] = test system: A498; assay: Cytotoxicity against human A498 cells up to 200 uM by modified MTT assay; format: functional, cell-based
# [3] = test system: ACHN; assay: Cytotoxicity against human ACHN cells up to 200 uM by modified MTT assay; format: functional, cell-based
# Acetylcholinesterase, sequence (P22303 whole entry): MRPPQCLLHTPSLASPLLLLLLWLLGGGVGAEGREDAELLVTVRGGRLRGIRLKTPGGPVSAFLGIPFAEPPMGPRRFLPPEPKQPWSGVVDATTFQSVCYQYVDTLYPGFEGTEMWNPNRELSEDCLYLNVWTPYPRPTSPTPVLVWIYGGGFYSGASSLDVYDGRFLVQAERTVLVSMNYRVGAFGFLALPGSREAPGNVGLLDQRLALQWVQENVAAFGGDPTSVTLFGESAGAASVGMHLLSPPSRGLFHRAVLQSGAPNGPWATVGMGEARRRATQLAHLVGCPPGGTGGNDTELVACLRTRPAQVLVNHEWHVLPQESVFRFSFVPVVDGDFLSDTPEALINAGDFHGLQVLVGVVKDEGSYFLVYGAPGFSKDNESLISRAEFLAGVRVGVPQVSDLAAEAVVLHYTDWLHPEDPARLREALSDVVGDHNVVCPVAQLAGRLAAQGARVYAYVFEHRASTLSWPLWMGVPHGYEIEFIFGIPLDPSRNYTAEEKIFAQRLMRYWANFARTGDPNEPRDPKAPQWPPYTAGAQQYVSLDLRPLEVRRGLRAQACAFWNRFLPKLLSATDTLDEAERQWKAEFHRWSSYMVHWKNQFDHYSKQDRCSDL
Structure (SMILES),IC50 [1] [µM],Activity [2],Activity [3]
CNc1ccccc1-c1nc(C(N)=O)cs1,53,inactive,inactive
CNc1ccccc1-c1nc(C(=O)OC)cs1,63,inactive,inactive
CNc1ccccc1-c1nc(C(=O)O)cs1,68,inactive,inactive
